Source: patent US9975878B2, “Substituted triazine BMI-1 inhibitors” (PTC Therapeutics, Inc., priority 2013, dated 2018)

System: Bmi-1 protein
Assay: Sandwich ELISA Assay: Bmi-1 protein level in HT-1080 cells treated with test compounds
Assay type: cell-based
Procedure, shortened: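 HT-1080 cells exposed to compounds (final DMSO 0.5%) for 40-48 h at 37° C, 5% CO2, then lysed. Bmi-1 quantified by sandwich ELISA (mouse anti-Bmi-1 capture, rabbit anti-Bmi-1 detection, HRP anti-rabbit, TMB), read at OD450 with OD570 reference, against recombinant GST-Bmi-1 standard curve (0-8000 pg/mL).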
`Nc1nc(Nc2ccc(OC(F)F)cc2)nc(-n2c(C3CC3)nc3c(F)cc(F)cc32)n1` [Cpd 89, 6-(2-cyclopropyl-4,6-difluoro-1H-benzimidazol-1-yl)-N-[4-(difluoromethoxy)phenyl]-1,3,5-triazine-2,4-diamine] showed an EC50 of 10 to 100 nM. In the case of `Nc1nc(Nc2ccc(OC(F)F)c(F)c2)nc(-n2c(C3CC3)nc3c(F)cc(F)cc32)n1` [Cpd 90, 6-(2-cyclopropyl-4,6-difluoro-1H-benzimidazol-1-yl)-N-[4-(difluoromethoxy)-3-fluorophenyl]-1,3,5-triazine-2,4-diamine], the EC50 is reported as 10 to 100 nM. With `COc1ccc(Nc2nc(N)nc(-n3c(C4CC4)nc4cc(F)ccc43)n2)cc1` [Cpd 191, 6-(2-cyclopropyl-5-fluoro-1H-benzimidazol-1-yl)-N-(4-methoxyphenyl)-1,3,5-triazine-2,4-diamine] the EC50 was 10 to 100 nM. Compound `Cc1ccc(Nc2nc(N)nc(-n3c(C4CC4)nc4cc(F)ccc43)n2)cc1` [Cpd 192, 6-(2-cyclopropyl-5-fluoro-1H-benzimidazol-1-yl)-N-(4-methylphenyl)-1,3,5-triazine-2,4-diamine] has an EC50 of 1 to 10 nM. In the case of `Nc1nc(Nc2ccc(Cl)cc2)nc(-n2c(C3CC3)nc3cc(F)ccc32)n1` [Cpd 193, N-(4-chlorophenyl)-6-(2-cyclopropyl-5-fluoro-1H-benzimidazol-1-yl)-1,3,5-triazine-2,4-diamine], the EC50 is reported as 100 to 3000 nM. Compound `COc1ccc(Nc2nc(N)nc(-n3c(C)nc4cc(F)c(F)cc43)n2)cc1` [Cpd 194, 6-(5,6-difluoro-2-methyl-1H-benzimidazol-1-yl)-N-(4-methoxyphenyl)-1,3,5-triazine-2,4-diamine] has an EC50 of 1 to 10 nM. Work on `Cc1ccc(Nc2nc(N)nc(-n3c(C)nc4cc(F)c(F)cc43)n2)cc1` [Cpd 195, 6-(5,6-difluoro-2-methyl-1H-benzimidazol-1-yl)-N-(4-methylphenyl)-1,3,5-triazine-2,4-diamine] yielded an EC50 of 10 to 100 nM. Compound `Cc1nc2cc(F)c(F)cc2n1-c1nc(N)nc(Nc2ccc(Cl)cc2)n1` [Cpd 196, N-(4-chlorophenyl)-6-(5,6-difluoro-2-methyl-1H-benzimidazol-1-yl)-1,3,5-triazine-2,4-diamine] has an EC50 of 100 to 3000 nM. Work on `Cc1nc2ccccc2n1-c1nc(N)nc(Nc2ccc(Cl)c(F)c2)n1` [Cpd 197, N-(4-chloro-3-fluorophenyl)-6-(2-methyl-1H-benzimidazol-1-yl)-1,3,5-triazine-2,4-diamine] yielded an EC50 of 100 to 3000 nM. For `CCc1nc2ccccc2n1-c1nc(N)nc(Nc2ccc(Cl)c(F)c2)n1` [Cpd 198, N-(4-chloro-3-fluorophenyl)-6-(2-ethyl-1H-benzimidazol-1-yl)-1,3,5-triazine-2,4-diamine], the EC50 was 10 to 100 nM. `Cc1nc2c(F)cc(F)cc2n1-c1nc(N)nc(Nc2ccc(Cl)c(F)c2)n1` [Cpd 199, N-(4-chloro-3-fluorophenyl)-6-(4,6-difluoro-2-methyl-1H-benzimidazol-1-yl)-1,3,5-triazine-2,4-diamine] showed an EC50 of 100 to 3000 nM. `CCc1nc2c(F)cc(F)cc2n1-c1nc(N)nc(Nc2ccc(Cl)c(F)c2)n1` [Cpd 200, N-(4-chloro-3-fluorophenyl)-6-(2-ethyl-4,6-difluoro-1H-benzimidazol-1-yl)-1,3,5-triazine-2,4-diamine] showed an EC50 of 100 to 3000 nM. `Cc1nc2ccc(F)cc2n1-c1nc(N)nc(Nc2ccc(Cl)c(F)c2)n1` [Cpd 201, N-(4-chloro-3-fluorophenyl)-6-(6-fluoro-2-methyl-1H-benzimidazol-1-yl)-1,3,5-triazine-2,4-diamine] showed an EC50 of 100 to 3000 nM. With `Cc1nc2ccccc2n1-c1cnnc(Nc2ccc(OC(F)F)cc2)n1` [Cpd 202, N-[4-(difluoromethoxy)phenyl]-5-(2-methyl-1H-benzimidazol-1-yl)-1,2,4-triazin-3-amine] the EC50 was 100 to 3000 nM. In the case of `CCc1nc2ccccc2n1-c1cnnc(Nc2ccc(OC(F)F)cc2)n1` [Cpd 203, N-[4-(difluoromethoxy)phenyl]-5-(2-ethyl-1H-benzimidazol-1-yl)-1,2,4-triazin-3-amine], the EC50 is reported as 10 to 100 nM. `COc1ccc(Nc2nncc(-n3c(C)nc4ccccc43)n2)cc1` [Cpd 204, N-(4-methoxyphenyl)-5-(2-methyl-1H-benzimidazol-1-yl)-1,2,4-triazin-3-amine] showed an EC50 of 1 to 10 nM. For `CCc1nc2ccccc2n1-c1cnnc(Nc2ccc(OC)cc2)n1` [Cpd 205, 5-(2-ethyl-1H-benzimidazol-1-yl)-N-(4-methoxyphenyl)-1,2,4-triazin-3-amine], the EC50 was 1 to 10 nM. Compound `Cc1nc2ccccc2n1-c1nc(N)nc(Nc2ccc(Br)cc2)n1` [Cpd 206, N-(4-bromophenyl)-6-(2-methyl-1H-benzimidazol-1-yl)-1,3,5-triazine-2,4-diamine] has an EC50 of 1 to 10 nM. `CCc1nc2ccccc2n1-c1nc(N)nc(Nc2ccc(Br)cc2)n1` [Cpd 207, N-(4-bromophenyl)-6-(2-ethyl-1H-benzimidazol-1-yl)-1,3,5-triazine-2,4-diamine] gave an EC50 of 1 to 10 nM. In the case of `Cc1nc2c(F)cc(F)cc2n1-c1nc(N)nc(Nc2ccc(Br)cc2)n1` [Cpd 208, N-(4-bromophenyl)-6-(4,6-difluoro-2-methyl-1H-benzimidazol-1-yl)-1,3,5-triazine-2,4-diamine], the EC50 is reported as 10 to 100 nM. Work on `CCc1nc2c(F)cc(F)cc2n1-c1nc(N)nc(Nc2ccc(Br)cc2)n1` [Cpd 209, N-(4-bromophenyl)-6-(2-ethyl-4,6-difluoro-1H-benzimidazol-1-yl)-1,3,5-triazine-2,4-diamine] yielded an EC50 of 1 to 10 nM. `Cc1nc2cc(F)c(F)cc2n1-c1nc(N)nc(Nc2ccc(Br)cc2)n1` [Cpd 210, N-(4-bromophenyl)-6-(5,6-difluoro-2-methyl-1H-benzimidazol-1-yl)-1,3,5-triazine-2,4-diamine] gave an EC50 of 10 to 100 nM. Compound `Cc1nc2ccc(F)cc2n1-c1nc(N)nc(Nc2ccc(Br)cc2)n1` [Cpd 211, N-(4-bromophenyl)-6-(6-fluoro-2-methyl-1H-benzimidazol-1-yl)-1,3,5-triazine-2,4-diamine] has an EC50 of 10 to 100 nM. With `CCc1nc2c(F)cccc2n1-c1nc(N)nc(Nc2ccc(OC)cc2)n1` [Cpd 212, 6-(2-ethyl-4-fluoro-1H-benzimidazol-1-yl)-N-(4-methoxyphenyl)-1,3,5-triazine-2,4-diamine] the EC50 was 1 to 10 nM. For `CCc1nc2c(F)cccc2n1-c1nc(N)nc(Nc2ccc(C)cc2)n1` [Cpd 213, 6-(2-ethyl-4-fluoro-1H-benzimidazol-1-yl)-N-(4-methylphenyl)-1,3,5-triazine-2,4-diamine], the EC50 was 1 to 10 nM. Work on `CCc1nc2c(F)cccc2n1-c1nc(N)nc(Nc2ccc(Cl)cc2)n1` [Cpd 214, N-(4-chlorophenyl)-6-(2-ethyl-4-fluoro-1H-benzimidazol-1-yl)-1,3,5-triazine-2,4-diamine] yielded an EC50 of 10 to 100 nM. For `CCc1nc2c(F)cccc2n1-c1nc(N)nc(Nc2ccc(Cl)c(F)c2)n1` [Cpd 215, N-(4-chloro-3-fluorophenyl)-6-(2-ethyl-4-fluoro-1H-benzimidazol-1-yl)-1,3,5-triazine-2,4-diamine], the EC50 was 10 to 100 nM. `CCc1nc2c(F)cccc2n1-c1nc(N)nc(Nc2ccc(Br)cc2)n1` [Cpd 216, N-(4-bromophenyl)-6-(2-ethyl-4-fluoro-1H-benzimidazol-1-yl)-1,3,5-triazine-2,4-diamine] showed an EC50 of 1 to 10 nM. `Cc1ccc(Nc2nncc(-n3c(C)nc4ccccc43)n2)cc1` [Cpd 217, 5-(2-methyl-1H-benzimidazol-1-yl)-N-(4-methylphenyl)-1,2,4-triazin-3-amine] gave an EC50 of 1 to 10 nM. `CCc1nc2ccccc2n1-c1cnnc(Nc2ccc(C)cc2)n1` [Cpd 218, 5-(2-ethyl-1H-benzimidazol-1-yl)-N-(4-methylphenyl)-1,2,4-triazin-3-amine] gave an EC50 of 1 to 10 nM. `Cc1nc2c(F)cccc2n1-c1nc(N)nc(Nc2ccc(Br)cc2)n1` [Cpd 219, N-(4-bromophenyl)-6-(4-fluoro-2-methyl-1H-benzimidazol-1-yl)-1,3,5-triazine-2,4-diamine] showed an EC50 of 10 to 100 nM. `Nc1nc(Nc2ccc(Br)cc2)nc(-n2c(C3CC3)nc3c(F)cccc32)n1` [Cpd 220, N-(4-bromophenyl)-6-(2-cyclopropyl-4-fluoro-1H-benzimidazol-1-yl)-1,3,5-triazine-2,4-diamine] showed an EC50 of 10 to 100 nM. Compound `CCc1nc2cc(F)ccc2n1-c1nc(N)nc(Nc2ccc(Br)cc2)n1` [Cpd 221, N-(4-bromophenyl)-6-(2-ethyl-5-fluoro-1H-benzimidazol-1-yl)-1,3,5-triazine-2,4-diamine] has an EC50 of 10 to 100 nM. With `Nc1nc(Nc2ccc(Br)cc2)nc(-n2c(C3CC3)nc3cc(F)ccc32)n1` [Cpd 222, N-(4-bromophenyl)-6-(2-cyclopropyl-5-fluoro-1H-benzimidazol-1-yl)-1,3,5-triazine-2,4-diamine] the EC50 was 10 to 100 nM. `CCc1nc2ccc(F)cc2n1-c1nc(N)nc(Nc2ccc(Br)cc2)n1` [Cpd 223, N-(4-bromophenyl)-6-(2-ethyl-6-fluoro-1H-benzimidazol-1-yl)-1,3,5-triazine-2,4-diamine] showed an EC50 of 10 to 100 nM. In the case of `Nc1nc(Nc2ccc(Br)cc2)nc(-n2c(C3CC3)nc3ccccc32)n1` [Cpd 224, N-(4-bromophenyl)-6-(2-cyclopropyl-1H-benzimidazol-1-yl)-1,3,5-triazine-2,4-diamine], the EC50 is reported as 1 to 10 nM. Compound `Nc1nc(Nc2ccc(OC(F)(F)F)cc2)nc(-n2c(C3CC3)nc3ccccc32)n1` [Cpd 225, 6-(2-cyclopropyl-1H-benzimidazol-1-yl)-N-[4-(trifluoromethoxy)phenyl]-1,3,5-triazine-2,4-diamine] has an EC50 of 100 to 3000 nM. In the case of `CSc1ccc(Nc2nc(N)nc(-n3c(C)nc4ccc(F)cc43)n2)cc1` [Cpd 226, 6-(6-fluoro-2-methyl-1H-benzimidazol-1-yl)-N-[4-(methylsulfanyl)phenyl]-1,3,5-triazine-2,4-diamine], the EC50 is reported as 10 to 100 nM. `CCc1nc2c(F)cccc2n1-c1nc(N)nc(Nc2ccc(SC)cc2)n1` [Cpd 227, 6-(2-ethyl-4-fluoro-1H-benzimidazol-1-yl)-N-[4-(methylsulfanyl)phenyl]-1,3,5-triazine-2,4-diamine] gave an EC50 of 1 to 10 nM.

System: not given
Assay: not given
Compound `Nc1nc(Nc2ccc(OC(F)F)cc2)nc(-n2c(C3CC3)nc3c(F)cc(F)cc32)n1` [Cpd 89, 6-(2-cyclopropyl-4,6-difluoro-1H-benzimidazol-1-yl)-N-[4-(difluoromethoxy)phenyl]-1,3,5-triazine-2,4-diamine] has a melting point of 181 to 183 °C. Work on `Nc1nc(Nc2ccc(OC(F)F)c(F)c2)nc(-n2c(C3CC3)nc3c(F)cc(F)cc32)n1` [Cpd 90, 6-(2-cyclopropyl-4,6-difluoro-1H-benzimidazol-1-yl)-N-[4-(difluoromethoxy)-3-fluorophenyl]-1,3,5-triazine-2,4-diamine] yielded a melting point of 196 to 198 °C.
